Measurements: US8304577B2, “Modulators of G protein-coupled receptor 88” (Bristol-Myers Squibb Company, priority 2009, dated 2012)

Each molecule was assayed against G protein-coupled receptor 88 (GPR88) (Homo sapiens, UniProt Q9GZN0) (assay: GPR88 functional assay: EC50 of Table 2 (GTPγS assay and cAMP HTRF assay described; table does not say which)). Conditions: class symbol; read-out: Range (EC50).
Format: cell-based
Method: 96 well GTPγS assay plates were purchased from Perkin Elmer. Wheat Germ Agglutinin PVT SPA beads and ^35S-GTPγS were purchased from Amersham GDP, GTPγS and all buffer reagents were from Sigma. 384 well white NBS plates were purchased from corning. Pertussis toxin was purchased from Calbiochem. All cell culture reagents were purchased from Invitrogen. Forskolin was purchased from Sigma. The cAMP HTRF kit was purchased fron Cisbio International.
The GTPγS assay buffer consisted of 10 mM MgCl2, 180 mM NaCl, 200 uM GDP, 0.167 mg/mL DTT, 1 mM EGTA and 20 mM HEPES pH7.4. This buffer was used for dilution of membranes, beads, and ^35S GTPγS components. To each well of the 96 well assay plate 48 ul assay buffer, 2 ul of 100× compound, 50 ul membrane solution (0.2 ug/ul), 50 ul ^35S GTPγS solution (0.8 nM) and 50 ul of SPA beads (10 mg/mL). Non-specific binding was determined by the addition of cold GTPγS to control wells. The plates were sealed with clear sealing tape and incubated at room temperature for 1 hour. GTPγS activity was detected using a Wallac Micro-Beta Trilux liquid scintillation counter. Non-specific binding was determined using 10 uM cold GTPγS.
The cAMP HTRF assay is modified from the Cisbio International kit procedure 62AM4PEJ. Assay plates were prepared by stamping 0.1 ul of 100× compound stock solutions diluted in DMSO or DMSO alone into 384 well NBS plates. The cAMP HTRF assay was performed using cells in suspension. The cAMP HTRF assay buffer consisted of Hank's Balanced Salt Solution (HBSS), 2 mM CaCl2, 5 mM MgCl2, 20 mM HEPES and 1 mM 3-isobutyl-1-methylxanthine (IBMX) (added fresh at the time of assay). For pertussis toxin treatment pertussis toxin (100 ng/mL) was added to culture medium for 16 hours prior to assay. Confluent cells were disrupted with cell dissociation buffer count cells then centrifuged at 1000×g for 5 minutes. The cell pellet was resuspended in assay buffer alone for basal cAMP measurements or with 0.75 uM forskolin (added immediately prior to addition to wells) for addition to all other wells. Using a Multidrop 384 (Lab systems) 10 ul of cell suspension was added to each well containing compound or DMSO. The plates were incubated at room temperature for 30 minutes covered. During this time the cAMP standard curve was prepared as per manufacturer's instruction. At the end of the incubation 10 ul of anti-cAMP cryptate and 10 ul cAMP-XL, diluted in manufacturer's lysis buffer, were added to each well. The plated were incubated at room temperature for 60 minutes covered then read on an Envision plate reader (Perkin Elmer) and the 665 nm/620 nm fluorescence ratio determined Fluorescence ratio values were converted to molar cAMP concentrations from the standard curve using the GraphPad Prism program.

Chain of G protein-coupled receptor 88 (GPR88) (Q9GZN0 whole entry, species assumed): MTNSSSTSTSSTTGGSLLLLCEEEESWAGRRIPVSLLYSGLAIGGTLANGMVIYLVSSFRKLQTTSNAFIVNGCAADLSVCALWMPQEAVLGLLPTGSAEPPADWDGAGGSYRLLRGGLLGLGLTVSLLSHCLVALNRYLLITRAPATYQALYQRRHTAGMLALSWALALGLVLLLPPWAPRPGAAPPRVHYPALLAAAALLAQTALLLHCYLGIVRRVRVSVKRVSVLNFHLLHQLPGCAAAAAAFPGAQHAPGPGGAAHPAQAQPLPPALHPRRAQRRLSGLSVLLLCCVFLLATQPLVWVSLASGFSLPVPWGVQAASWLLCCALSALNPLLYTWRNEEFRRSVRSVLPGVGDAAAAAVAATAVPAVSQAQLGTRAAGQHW

Row | Compound | EC50 [nM]
1 | CCCC(C)COc1ccc([C@H](CNC(=O)[C@H](N)[C@H](C)CC)NC(=O)[C@@H](C)c2ccccc2)cc1 (stereo partly drawn) [Example 22, (2R,3R)-2-Amino-3-methyl-N-((2R)-2-(4-(2-methylpentyloxy)phenyl)-2-((S)-2-phenylpropanamido)ethyl)pentanamide] | 39 to 99
2 | CCCC(C)COc1ccc([C@H](CNC(=O)[C@@H](N)CC)NC(=O)[C@@H](C)c2ccccc2)cc1 (stereo partly drawn) [Example 25, (2S)-2-Amino-N-((2R)-2-(4-(2-methylpentyloxy)phenyl)-2-((S)-2-phenylpropanamido)ethyl)butanamide] | 39 to 99
3 | CCCC(C)COc1ccc([C@H](CNC(=O)[C@H](N)CCC)NC(=O)[C@@H](C)c2ccccc2)cc1 (stereo partly drawn) [Example 31, (2R)-2-Amino-N-((2R)-2-(4-(2-methylpentyloxy)phenyl)-2-((S)-2-phenylpropanamido)ethyl)pentanamide] | 100 to 200
4 | CCCC(C)COc1ccc([C@H](CNC(=O)[C@@H](N)C(C)C)NC(=O)[C@@H](C)c2ccccc2)cc1 (stereo partly drawn) [Example 24, (2S)-2-Amino-3-methyl-N-((2R)-2-(4-(2-methylpentyloxy)phenyl)-2-((S)-2-phenylpropanamido)ethyl)butanamide] | 39 to 99
5 | CCCC(C)COc1ccc([C@H](CNCc2ccncc2)NC(=O)[C@@H](C)c2ccccc2)cc1 (stereo partly drawn) [Example 9, (2S)-N-((1R)-1-(4-(2-Methylpentyloxy)phenyl)-2-(pyridin-4-ylmethylamino)ethyl)-2-phenylpropanamide] | 100 to 200
6 | CCCC(C)COc1ccc([C@H](CNC[C@H](C)N)NC(=O)[C@@H](C)c2ccccc2)cc1 (stereo partly drawn) [Example 17, (2S)-N-((1R)-2-((S)-2-Aminopropylamino)-1-(4-(2-methylpentyloxy)phenyl)ethyl)-2-phenylpropanamide] | 100 to 200
7 | CC[C@H](C)COc1ccc([C@H](CN)NC(=O)[C@@H](C)c2ccccc2)cc1 [Example 37, (2S)-N-((1R)-2-Amino-1-[4-((S)-2-methylbutoxy)phenyl]-ethyl)-2-phenylpropionamide] | 39 to 99
8 | CCCC(C)COc1ccc([C@H](CNC(=O)[C@H](C)N)NC(=O)[C@@H](C)c2ccccc2)cc1 (stereo partly drawn) [Example 23, (2S)-2-Amino-N-((2R)-2-(4-(2-methylpentyloxy)phenyl)-2-((S)-2-phenylpropanamido)ethyl)propanamide] | 39 to 99
9 | CCCC(C)COc1ccc([C@H](CN2CCOCC2)NC(=O)[C@@H](C)c2ccccc2)cc1 (stereo partly drawn) [Example 35, (2S)-N-((1R)-1-(4-(2-Methylpentyloxy)phenyl)-2-morpholinoethyl)-2-phenylpropanamide] | 100 to 200
10 | CCCC(C)COc1ccc([C@H](CNC(=O)[C@H](N)C2CC2)NC(=O)[C@@H](C)c2ccccc2)cc1 (stereo partly drawn) [Example 30, (2S)-N-((1R)-2-((R)-2-Amino-2-cyclopropylacetamido)-1-(4-(2-methylpentyloxy)phenyl)ethyl)-2-phenylpropanamide] | 100 to 200
11 | CCCC(C)COc1ccc([C@H](CNCC2CC2)NC(=O)[C@@H](C)c2ccccc2)cc1 (stereo partly drawn) [Example 7, (2S)-N-((1R)-2-(Cyclopropylmethylamino)-1-(4-(2-methylpentyloxy)phenyl)ethyl)-2-phenylpropanamide] | 39 to 99
12 | CC[C@H](C)COc1ccc([C@@H](NC(=O)[C@@H](C)c2ccccc2)[C@@H](C)O)cc1 [Example 39, (S)-N-{(1R,2R)-2-Hydroxy-1-[4-((S)-2-methyl-butoxy)-phenyl]-propyl}-2-phenylpropionamide] | 100 to 200
13 | CCCC(C)COc1ccc([C@H](CNC(=O)[C@@H](N)[C@@H](C)OC)NC(=O)[C@@H](C)c2ccccc2)cc1 (stereo partly drawn) [Example 32, (2S,3R)-2-Amino-3-methoxy-N-((2R)-2-(4-(2-methylpentyloxy)phenyl)-2-((S)-2-phenylpropanamido)ethyl)butanamide] | 100 to 200
14 | CCCC(C)COc1ccc([C@H](CNC(=O)[C@H](N)CC(C)C)NC(=O)[C@@H](C)c2ccccc2)cc1 (stereo partly drawn) [Example 20, (2R)-2-Amino-4-methyl-N-((2R)-2-(4-(2-methylpentyloxy)phenyl)-2-((S)-2-phenylpropanamido)ethyl)pentanamide] | 39 to 99
15 | CCCC(C)COc1ccc([C@H](CNCc2cccnc2)NC(=O)[C@@H](C)c2ccccc2)cc1 (stereo partly drawn) [Example 13, (2S)-N-((1R)-1-(4-(2-Methylpentyloxy)phenyl)-2-(pyridin-3-ylmethylamino)ethyl)-2-phenylpropanamide] | 100 to 200
16 | CCCC(C)COc1ccc([C@H](CNC(=O)[C@@H](N)[C@H](C)CC)NC(=O)[C@@H](C)c2ccccc2)cc1 (stereo partly drawn) [Example 27, (2S,3R)-2-Amino-3-methyl-N-((2R)-2-(4-(2-methylpentyloxy)phenyl)-2-((S)-2-phenylpropanamido)ethyl)pentanamide] | 100 to 200
17 | CCCC(C)COc1ccc([C@H](CN(C)C)NC(=O)[C@@H](C)c2ccccc2)cc1 (stereo partly drawn) [Example 6, (2S)-N-((1R)-2-(Dimethylamino)-1-(4-(2-methylpentyloxy)phenyl)ethyl)-2-phenylpropanamide] | 39 to 99
18 | CCCC(C)COc1ccc([C@H](CNCC2CCOC2)NC(=O)[C@@H](C)c2ccccc2)cc1 (stereo partly drawn) [Example 14, (2S)-N-((1R)-1-(4-(2-Methylpentyloxy)phenyl)-2-((tetrahydrofuran-3-yl)methylamino)ethyl)-2-phenylpropanamide] | 100 to 200

The remaining lines, values ahead:

Row | EC50 [nM] | Compound
19 | 100 to 200 | CCCC(C)COc1ccc([C@H](CNCc2c[nH]c3ccccc23)NC(=O)[C@@H](C)c2ccccc2)cc1 (stereo partly drawn) [Example 12, (2S)-N-((1R)-2-((1H-Indol-3-yl)methylamino)-1-(4-(2-methylpentyloxy)phenyl)ethyl)-2-phenylpropanamide]
20 | 100 to 200 | CCCC(C)COc1ccc([C@H](CNCc2cc[nH]n2)NC(=O)[C@@H](C)c2ccccc2)cc1 (stereo partly drawn) [Example 11, (2S)-N-((1R)-2-((1H-Pyrazol-3-yl)methylamino)-1-(4-(2-methylpentyloxy)phenyl)ethyl)-2-phenylpropanamide]
21 | 100 to 200 | CCCC(C)COc1ccc(C(CN2CCN(C)CC2)NC(=O)[C@@H](C)c2ccccc2)cc1 (mixture of isomers) [Example 36, (2S)-N-(1-(4-(2-Methylpentyloxy)phenyl)-2-(4-methylpiperazin-1-yl)ethyl)-2-phenylpropanamide]
22 | 100 to 200 | CCCC(C)COc1ccc([C@H](CNC(=O)[C@@H](N)CC2CC2)NC(=O)[C@@H](C)c2ccccc2)cc1 (stereo partly drawn) [Example 28, (2S)-2-Amino-3-cyclopropyl-N-((2R)-2-(4-(2-methylpentyloxy)phenyl)-2-((S)-2-phenylpropanamido)ethyl)propanamide]
23 | 39 to 99 | CCCC(C)COc1ccc([C@H](CNC(=O)[C@@H](N)CCC)NC(=O)[C@@H](C)c2ccccc2)cc1 (stereo partly drawn) [Example 26, (2S)-2-Amino-N-((2R)-2-(4-(2-methylpentyloxy)phenyl)-2-((S)-2-phenylpropanamido)ethyl)pentanamide]
24 | 100 to 200 | CCCC(C)COc1ccc([C@H](CO)NC(=O)[C@@H](CC)c2ccccc2)cc1 (stereo partly drawn) [Example 2, (2S)-N-((1R)-2-Hydroxy-1-(4-(2-methylpentyloxy)phenyl)ethyl)-2-phenylbutanamide]

Same assay, conditions: exact value given; read-out: Range (EC50)

Row | EC50 [nM] | Compound
25 | 89 | CCCC(C)COc1ccc([C@H](CNC(=O)[C@@H]2CCCN2)NC(=O)[C@@H](C)c2ccccc2)cc1 (stereo partly drawn) [Example 21, (2S)-N-((2R)-2-(4-(2-Methylpentyloxy)phenyl)-2-((S)-2-phenylpropanamido)ethyl)pyrrolidine-2-carboxamide]
26 | 154 | CCCC(C)COc1ccc([C@H](CNC[C@H]2CCCN2)NC(=O)[C@@H](C)c2ccccc2)cc1 (stereo partly drawn) [Example 18, (2S)-N-((1R)-1-(4-(2-Methylpentyloxy)phenyl)-2-((R)-pyrrolidin-2-ylmethylamino)ethyl)-2-phenylpropanamide]
27 | 54 | CCCC(C)COc1ccc([C@H](CN)NC(=O)[C@@H](C)c2ccccc2)cc1 (stereo partly drawn) [Example 5, (2S)-N-((1R)-2-Amino-1-(4-(2-methylpentyloxy)phenyl)ethyl)-2-phenylpropanamide]
28 | 110 | CCCC(C)COc1ccc([C@H](CNCc2ccccn2)NC(=O)[C@@H](C)c2ccccc2)cc1 (stereo partly drawn) [Example 10, (2S)-N-((1R)-1-(4-(2-Methylpentyloxy)phenyl)-2-(pyridin-2-ylmethylamino)ethyl)-2-phenylpropanamide]
